Like-named read-outs stand apart in the source and are kept apart here.
How the values were obtained:
Experiment in all cases: 96-well microtiter plate assay, fungal growth inhibition
C. acutatum = assay type: cell-based, Colletotrichum acutatum; details: Colletotrichum acutatum, read-out: Percent inhibition−Percent Stimulation±SEM
From the text: (§1) Pathogen production. Isolates of Colletotrichum acutatum Simmonds, Colletotrichum fragariae Brooks, and Colletotrichum gloeosporioides (Penz.) Penz. & Sacc. in Penz. were obtained from B. J. Smith, USDA, ARS, Small Fruit Research Station, Poplarville, Miss. Colletotrichum fragariae (isolate CF63), C. acutatum (isolate CAGoff), and C. gloeosporioides (isolate CG162) were used for all pathogen and bioautography studies. Isolate CF63 is one of the most virulent isolates at infecting strawberry plants and inducing both crown and fruit rot (Smith and Black, 1990). CF63, CAGoff, and CG162 were used as standard test isolates because of our extensive knowledge of these isolates and their known fungicide sensitivity profiles in both bioautography and microtiter formats. The three Colletotrichum species were isolated from strawberry (Fragaria x ananassa Duchesne). Botrytis cinerea Pers.: Fr, was isolated from commercial grape (Vitis vinifera L.) and Fusarium oxysporum Schlechtend: Fr from orchid (Cynoches sp.). Phomopsis viticola (Sacc.) and P. obscurans (Ellis & Everh.) Sutton were from Mike A. Ellis, Ohio State University, Wooster, Ohio. Fungi were grown on potato-dextrose agar (PDA, Difco, Detroit, Mich.) in 9 cm petri dishes and incubated in a growth chamber at 24±2° C. and under cool-white fluorescent lights ([…]·m^−2·sec^−1 light) with 12 hour photoperiod.
(§2) Inoculum preparation. Conidia were harvested from 7-10 day-old cultures by flooding plates with 5 mL of sterile distilled water and dislodging conidia by softly brushing the colonies with an L-shaped glass rod. Conidial suspensions were filtered through sterile miracloth (Calbiochem-Novabiochem Corp., La Jolla, Calif.) to remove mycelia. Conidia concentrations were determined photometrically, from a standard curve based on the percent of transmittance (% T) at 625 nm and suspensions were then adjusted with sterile distilled water to a concentration of 1.0×10^6 conidia/mL.
(§3) Microtiter assay. A standardized 96-well microtiter plate assay developed for discovery of natural product fungicidal agents was used to evaluate naturally occurring antifungal agents from Macaranga monanara. A 96-well microtiter assay was used to determine sensitivity of B. cinerea, C. acutatum, C. fragariae, C. gloeosporioides, F. oxysporum, Phomopsis viticola, and P. obscurans to the various antifungal agents in comparison with known fungicidal standards. Vinclozolin, captan, and thiabendazole, which represent three different modes of action, were used as standards in this experiment. Each fungus was challenged in a dose-response format using test compounds where the final treatment concentrations were 0.3, 3.0 and 30.0 μM. Microtiter plates (Nunc MicroWell, untreated; Roskilde, Denmark) were covered with a plastic lid and incubated in a growth chamber as described previously for fungal growth. Growth was then evaluated by measuring absorbance of each well at 620 nm using a microplate photometer (Packard Spectra Count, Packard Instrument Co., Downers Grove, Ill.). Microtiter plates (Nunc MicroWell, untreated; Roskilde, Denmark) were covered with a plastic lid and incubated in a growth chamber at 24±1° C. and 12 hour photoperiod under 60±5 μmol light. Growth was then evaluated by measuring absorbance of each well at 620 nm using a microplate photometer (Packard Spectra Count, Packard Instrument Co., Downers Grove, Ill.).
(§4) Microbioassy Experimental Design. Chemical sensitivity each of B. cinerea, C. acutatum, C. fragariae, C. gloeosporiodes, F. oxysporum, Phomopsis viticola, and P. obscurans was evaluated using 96-well plate microbioassay format. Each chemical was evaluated in duplicate at each dose (0.3, 3.0 and 30.0 μM). […]

B. cinerea = assay type: cell-based, Botrytis cinerea; details: Botrytis cinerea, read-out: Percent inhibition−Percent Stimulation±SEM
From the text: as §1, §2, §3, §4

F. oxysporum = assay type: cell-based, Fusarium oxysporum; details: Fusarium oxysporum, read-out: Percent inhibition−Percent Stimulation±SEM
From the text: as §1, §2, §3, §4

C. fragariae = assay type: cell-based, Colletotrichum fragariae; details: Colletotrichum fragariae, read-out: Percent inhibition−Percent Stimulation±SEM
From the text: as §1, §2, §3, §4

C. gloeosporioides = assay type: cell-based, Colletotrichum gloeosporioides; details: Colletotrichum gloeosporioides, read-out: Percent inhibition−Percent Stimulation±SEM
From the text: as §1, §2, §3, §4

| SMILES | inhibition at 0.3 µM (C. acutatum; 48 h) | inhibition at 3 µM (C. acutatum; 48 h) | inhibition at 30 µM (C. acutatum; 48 h) | inhibition at 0.3 µM (C. acutatum; 72 h) | inhibition at 3 µM (C. acutatum; 72 h) | inhibition at 30 µM (C. acutatum; 72 h) | inhibition at 0.3 µM (B. cinerea; 48 h) | inhibition at 3 µM (B. cinerea; 48 h) | inhibition at 30 µM (B. cinerea; 48 h) | inhibition at 0.3 µM (B. cinerea; 72 h) | inhibition at 3 µM (B. cinerea; 72 h) | inhibition at 30 µM (B. cinerea; 72 h) | inhibition at 0.3 µM (F. oxysporum; 48 h) | inhibition at 3 µM (F. oxysporum; 48 h) | inhibition at 30 µM (F. oxysporum; 48 h) | inhibition at 0.3 µM (F. oxysporum; 72 h) | inhibition at 3 µM (F. oxysporum; 72 h) | inhibition at 30 µM (F. oxysporum; 72 h) | inhibition at 0.3 µM (C. fragariae; 48 h) | inhibition at 3 µM (C. fragariae; 48 h) | further results |
| --- | --- | --- | --- | --- | --- | --- | --- | --- | --- | --- | --- | --- | --- | --- | --- | --- | --- | --- | --- | --- | --- |
| CCCCNC(=O)n1c(NC(=O)OC)nc2ccccc21 [Benomyl] | 24.6 ± 6.1% | 20.3 ± 4.8% | 16.6 ± 6.3% | -7.7 ± 6.6% | 47.7 ± 4.1% | -15.2 ± 3.7% | 50 ± 26.9% | 21.6 ± 27.3% | 39.9 ± 20.4% | 71.2 ± 25.1% | 40.9 ± 22% | 47.3 ± 14.9% | 3.3 ± 4.7% | 12 ± 3% | 86.3 ± 1.6% | -1.6 ± 3.2% | 0.8 ± 3.5% | 77.2 ± 2.3% | 51.5 ± 5% | 89.6 ± 1.2% | inhibition at 30 µM (C. fragariae; 48 h): 92.4 ± 1.1%; inhibition at 0.3 µM (C. fragariae; 72 h): 36.8 ± 4.4%; inhibition at 3 µM (C. fragariae; 72 h): 92.7 ± 1%; inhibition at 30 µM (C. fragariae; 72 h): 94.3 ± 0.9%; inhibition at 0.3 µM (C. gloeosporioides; 48 h): 47.5 ± 9.2%; inhibition at 3 µM (C. gloeosporioides; 48 h): 84.2 ± 3.8%; inhibition at 30 µM (C. gloeosporioides; 48 h): 82.4 ± 4%; inhibition at 0.3 µM (C. gloeosporioides; 72 h): 16.1 ± 6.5%; inhibition at 3 µM (C. gloeosporioides; 72 h): 59.9 ± 9.6%; inhibition at 30 µM (C. gloeosporioides; 72 h): 44.8 ± 8.6% |
| O=C1C2CC=CCC2C(=O)N1SC(Cl)(Cl)Cl (stereo not drawn) [Captan] | -2.7 ± 2.4% | 98.8 ± 0.4% | 99.5 ± 0.3% | -9.5 ± 1.5% | 94.8 ± 0.2% | 99.6 ± 0.2% | -55.9 ± 24.7% | 38.4 ± 23.5% | 58 ± 23.2% | 40.7 ± 16.3% | 54.6 ± 22.9% | 54 ± 17.9% | 2.8 ± 4.7% | 77.2 ± 7.2% | 100 ± 0.4% | -4.7 ± 2.1% | 24.1 ± 6.5% | 99.8 ± 0.2% | -20.5 ± 9.5% | 98.1 ± 0.6% | inhibition at 30 µM (C. fragariae; 48 h): 98.8 ± 0.8%; inhibition at 0.3 µM (C. fragariae; 72 h): -14.9 ± 2.2%; inhibition at 3 µM (C. fragariae; 72 h): 97.8 ± 1.6%; inhibition at 30 µM (C. fragariae; 72 h): 99.5 ± 0.3%; inhibition at 0.3 µM (C. gloeosporioides; 48 h): -4.4 ± 4.4%; inhibition at 3 µM (C. gloeosporioides; 48 h): 96.3 ± 2.1%; inhibition at 30 µM (C. gloeosporioides; 48 h): 99.7 ± 0.6%; inhibition at 0.3 µM (C. gloeosporioides; 72 h): -15.3 ± 2.1%; inhibition at 3 µM (C. gloeosporioides; 72 h): 97.9 ± 0.7%; inhibition at 30 µM (C. gloeosporioides; 72 h): 100 ± 0.3% |

From patent publication US6844353B2, “Fungicidal properties of sampangine and its analogs to agriculturally important fungal plant pathogens” (The United States of America as represented by the …, priority 2003, dated 2005)
